Here are results for 16 molecules from US8648076B2, “Cysteine protease inhibitors and their therapeutic applications” (Hybrigenics SA, priority 2005, dated 2014).

Read-outs that look alike come from different tables or passages of the source. Bounds are passed on as bounds.

For one experiment, the target named is T1, USP8 (Homo sapiens, UniProt P40818).
T1 sequence (P40818 1-1118): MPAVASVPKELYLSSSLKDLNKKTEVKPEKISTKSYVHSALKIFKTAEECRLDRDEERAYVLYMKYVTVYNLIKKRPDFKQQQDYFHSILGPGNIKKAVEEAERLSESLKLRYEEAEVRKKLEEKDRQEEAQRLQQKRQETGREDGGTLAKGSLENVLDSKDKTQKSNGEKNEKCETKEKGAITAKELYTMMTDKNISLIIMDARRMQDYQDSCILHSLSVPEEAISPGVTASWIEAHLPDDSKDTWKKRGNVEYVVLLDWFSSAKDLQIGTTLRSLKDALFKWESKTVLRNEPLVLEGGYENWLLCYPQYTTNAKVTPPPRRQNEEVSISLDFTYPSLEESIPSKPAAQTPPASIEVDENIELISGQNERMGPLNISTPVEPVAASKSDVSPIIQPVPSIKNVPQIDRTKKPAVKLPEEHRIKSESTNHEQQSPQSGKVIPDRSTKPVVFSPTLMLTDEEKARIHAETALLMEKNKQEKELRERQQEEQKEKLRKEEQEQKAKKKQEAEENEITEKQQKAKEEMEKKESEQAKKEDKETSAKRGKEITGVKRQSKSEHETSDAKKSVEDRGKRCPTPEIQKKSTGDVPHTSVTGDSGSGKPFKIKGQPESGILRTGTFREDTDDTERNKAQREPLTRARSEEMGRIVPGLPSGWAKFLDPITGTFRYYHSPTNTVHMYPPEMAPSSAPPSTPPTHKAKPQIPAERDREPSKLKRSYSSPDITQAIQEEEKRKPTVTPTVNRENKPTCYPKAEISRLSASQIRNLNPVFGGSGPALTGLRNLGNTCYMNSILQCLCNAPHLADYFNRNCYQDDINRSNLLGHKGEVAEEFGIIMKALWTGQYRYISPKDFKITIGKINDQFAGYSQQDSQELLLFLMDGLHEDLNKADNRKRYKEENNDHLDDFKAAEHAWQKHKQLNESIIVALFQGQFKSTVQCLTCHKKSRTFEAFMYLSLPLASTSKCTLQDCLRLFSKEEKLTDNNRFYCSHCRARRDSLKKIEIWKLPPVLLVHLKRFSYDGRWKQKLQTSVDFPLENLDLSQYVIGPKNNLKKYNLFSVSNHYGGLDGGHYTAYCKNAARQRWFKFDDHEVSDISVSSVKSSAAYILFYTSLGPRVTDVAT
In words: USP8 activity assay. The class given is biochemical. To be noted: 400 nM Ub-AMC, pH8.8, 30 min pre-incubation at 25° C., 60 min at 37° C.; sigmoidal fit; AF: Autofluorescent; read-out: USP 8 (inhibition of cysteine protease activity).

The next experiment concerns the target T2, Caspase 3 (Homo sapiens, UniProt P42574).
T2 sequence (P42574 29-175 limits assumed): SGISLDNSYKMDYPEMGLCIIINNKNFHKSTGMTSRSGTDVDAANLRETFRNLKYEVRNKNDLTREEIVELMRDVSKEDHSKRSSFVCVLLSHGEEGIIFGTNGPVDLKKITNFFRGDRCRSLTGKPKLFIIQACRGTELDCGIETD
T2 sequence (P42574 176-277 limits assumed): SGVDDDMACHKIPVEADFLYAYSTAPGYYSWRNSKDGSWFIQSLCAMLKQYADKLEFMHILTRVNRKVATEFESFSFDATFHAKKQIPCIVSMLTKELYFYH
In words: Caspase 3 activity assay. The class given is biochemical. How it is done: Compounds stocks (100 mM) were stored at −20° C. in DMSO. […] Reactions were performed as duplicates in Black LJL 96 well plates (HE microplates; Molecular Devices; 20 μl final reaction volume). The substrate concentration for caspase 3 specificity assay was 500 nM (Ac-DEVD-AMC; Promega). […] The concentrations were determined in order to perform specificity assays under initial velocities at fixed substrate concentration. Compounds were pre-incubated with enzymes for 30 minutes at 25° C. Reactions were initiated by addition of substrate to the plates containing the enzymes (+/−compounds) diluted in assay buffer. Reactions were incubated for 60 minutes at 37° C. Reactions were stopped by adding acetic acid (100 mM final). Readings were performed on a Pherastar Fluorescent Reader (BMG). δ Emission 380 nm; δ Excitation=460 nm. Data (mean values+/− standard deviation) were analyzed as % of control (no compound) and plotted as percentage versus the Log of the compound concentration using GraphPad (Prism). Data were fitted to a sigmoidal model (variable slope).

The target in a further experiment is Cathepsin B (Homo sapiens, UniProt P07858). In words: Cathepsin B activity assay. The class given is biochemical. To be noted: 36 μM z-RR-AMC, 3.6 nM enzyme, 30 min pre-incubation at 25° C., 60 min at 37° C.; sigmoidal fit; AF: Autofluorescent; read-out: cathepB (inhibition of cysteine protease activity). How it is done:
Cathepsin B was diluted in Cathepsin B buffer (20 mM Tris HCl pH 6.8; 1 mM EDTA; 1 mM DTT). Compounds stocks (100 mM) were stored at −20° C. in DMSO. […] Reactions were performed as duplicates in Black LJL 96 well plates (HE microplates; Molecular Devices; 20 μl final reaction volume). The substrate concentration for cathepsin B specificity assay was 36 μM (z-RR-AMC; Calbiochem). The concentration of the enzyme (Cathepsin B) in specificity assays was 3.6 nM. The concentrations were determined in order to perform specificity assays under initial velocities at fixed substrate concentration. Compounds were pre-incubated with enzymes for 30 minutes at 25° C. Reactions were initiated by addition of substrate to the plates containing the enzymes (+/− compounds) diluted in assay buffer. Reactions were incubated for 60 minutes at 37° C. Reactions were stopped by adding acetic acid (100 mM final). Readings were performed on a Pherastar Fluorescent Reader (BMG). δ Emission 380 nm; 6 Excitation=460 nm. Data (mean values+/− standard deviation) were analyzed as % of control (no compound) and plotted as percentage versus the Log of the compound concentration using GraphPad (Prism). Data were fitted to a sigmoidal model (variable slope).

Experiment [1] has as its system HCT116 colon cancer cells. In words: HCT116 cell viability and proliferation assay (MTS). The class given is cell-based. The conditions noted are these: Homo sapiens, read-out: HCT116 D3 GI50.
Experiment [2] concerns PC-3 prostate cancer cells. In words: PC3 cell viability and proliferation assay (MTS). The experiment is classed as cell-based. To be noted: Homo sapiens, PC-3, 72 h, read-out: PC3 D3 GI50.
Setting [3] is: 500 nM Ac-DEVD-AMC, 3.2 nM enzyme, 30 min pre-incubation at 25° C., 60 min at 37° C., sigmoidal fit, AF: Autofluorescent, read-out: Casp3 (inhibition of cysteine protease activity).
Setting [4] is: HCT-116, HCT116 cells, 72 hours incubation, MTS, mean of 3 independent experiments.
The mark [5] stands for this setting: PC3 cells, 72 hours incubation, MTS, mean of 3 independent experiments.

Usually GI50 stands for the concentration at which growth is held to half of that of the control. For `N#Cc1nc2c(nc1C#N)-c1ccccc1C2=NOCc1ccccc1` (mixture of isomers) [Example 13C, 9-Benzyloxyimino-9H-indeno[1,2-b]pyrazine-2,3-dicarbonitrile], the IC50 was 850 nM at USP8, > 100000 nM at Caspase 3 (setting [3]) and > 100000 nM on Cathepsin B. For the same molecule, the GI50 was 750 nM in experiment [1] (setting [4]) and 700 nM in experiment [2] (setting [5]).

With `C=CCON=C1c2ccccc2-c2nc(C#N)c(C#N)nc21` (mixture of isomers) [Example 13b, 9-(Allyloxyimino)-9H-indeno[1,2-b]pyrazine-2,3-dicarbonitrile], the IC50 at USP8 was 560 nM; on Caspase 3 (setting [3]) it was > 100000 nM; on Cathepsin B, > 100000 nM. Besides, the GI50 in experiment [1] (HCT-116, 72 h) was determined as 580 nM; in experiment [2] it was 540 nM.

With `CCON=C1c2ccccc2-c2nc(C#N)c(C#N)nc21` (mixture of isomers) [Example 13d, 9-Ethoxyimino-9H-indeno[1,2-b]pyrazine-2,3-dicarbonitrile], the IC50 on Caspase 3 (setting [3]) and at Cathepsin B was > 100000 nM in each case. Further, the GI50 in experiment [1] (setting [4]) was determined as 1180 nM; in experiment [2] (setting [5]), 1540 nM.

For `N#Cc1nc2c(nc1C#N)-c1ccccc1C2=Nc1ccccc1` (mixture of isomers) [Example 14, 9-[phenylimino]-9H-indeno[1,2-b]pyrazine-2,3-dicarbonitrile], the IC50 at USP8 came out at 350 nM; at Caspase 3 (setting [3]), 1300 nM; at Cathepsin B it was 74000 nM. For the same molecule, the GI50 amounted to 430 nM in experiment [1] (setting [4]) and 510 nM in experiment [2] (setting [5]).

On to `N#Cc1nc2c(nc1C(N)=O)-c1ccccc1/C2=N\O` [Example 11, 2-cyano-9-[hydroxyimino]-9H-indeno[1,2-b]pyrazine-3-carboxylic acid amide], for which the IC50 at USP8 is 730 nM; at Caspase 3 (setting [3]) it was 2300 nM. Besides, the GI50 in experiment [1] (setting [4]) was determined as 1600 nM; in experiment [2] (setting [5]), 1240 nM.

Regarding `COc1ccc2c(c1)-c1nc(C#N)c(C#N)nc1C2=O` [Example 17a, 6-Methoxy-9-oxo-9H-indeno[1,2-b]pyrazine-2,3-dicarbonitrile], the figures for the IC50 on USP8 and on Caspase 3 (setting [3]) were 4000 nM and 10000 nM, respectively. In addition, the GI50 in experiment [1] (setting [4]) is 610 nM; in experiment [2] (setting [5]), 1400 nM.

Turning to `CCO/C(O)=C(\C#N)c1nc2c(nc1C#N)C(=O)c1ccccc1-2` [Example 22, 3-(1-cyano-2-ethoxy-2-hydroxy-vinyl)-9-oxo-9H-indeno[1,2-b]pyrazine-2-carbonitrile], the IC50 on Caspase 3 (setting [3]) and on Cathepsin B was > 100000 nM each time. Moreover, the GI50 in experiment [1] (setting [4]) and in experiment [2] (setting [5]) was > 10000 nM each time.

As to `N#Cc1nc2c(nc1CC(N)=O)-c1ccccc1C2=O` [Example 26, 2-(2-cyano-9-oxo-9H-indeno[1,2-b]pyrazin-3-yl)-acetamide], the IC50 at USP8 was 11000 nM; on Cathepsin B, > 100000 nM. The GI50 was > 10000 nM in experiment [1] (HCT-116, 72 h) and > 10000 nM in experiment [2].

`C=CCON=C1c2ccc(Cl)cc2-c2nc(C#N)c(C#N)nc21` [Example 27c, 9-Allyloxyimino-6-chloro-9H-indeno[1,2-b]pyrazine-2,3-dicarbonitrile]: the results for the IC50 at USP8 and on Caspase 3 (setting [3]) were 201 nM and 2830 nM, respectively. Further, the GI50 is 421 nM in experiment [1] (HCT-116, 72 h) and 803 nM in experiment [2].

With `Cc1c(F)ccc2c1C(=O)c1nc(C#N)c(C#N)nc1-2` [Example 30, 7-Fluoro-8-methyl-9-oxo-9H-indeno[1,2-b]pyrazine-2,3-dicarbonitrile], the IC50 was 316 nM on USP8 and 1070 nM on Caspase 3 (setting [3]). Further, the GI50 stood at 705 nM in experiment [1] (setting [4]) and 854 nM in experiment [2] (setting [5]).

Turning to `N#Cc1nc2c(nc1C#N)-c1cc(Cl)c(Cl)cc1C2=O` [Example 31, 6,7-dichloro-9-oxo-9H-indeno[1,2-b]pyrazine-2,3-dicarbonitrile], the IC50 at USP8 was found to be 76 nM; at Caspase 3 (setting [3]) it was 158 nM. For the same molecule, the GI50 in experiment [1] (HCT-116, 72 h) worked out at 753 nM; in experiment [2], 2430 nM.

`N#Cc1nc2c(nc1C(N)=O)-c1ccccc1C2=O` [Example 36, 2-cyano-9-oxo-9H-indeno[1,2-b]pyrazine-3-carboxylic acid amide]: the IC50 amounted to 205 nM on USP8 and 402 nM on Caspase 3 (setting [3]). The GI50 in experiment [1] (HCT-116, 72 h) was 4250 nM.

Turning to `CCOC(=O)CO/N=C1\c2ccccc2-c2nc(C(N)=O)c(C#N)nc21` [Example 37, (3-carbamoyl-2-cyano-indeno[1,2-b]pyrazin-9-ylideneaminooxy)-acetic acid ethyl ester], the IC50 at USP8 turned out to be 200 nM; on Caspase 3 (setting [3]), 1160 nM. In addition, in experiment [1] (setting [4]), the GI50 was 652 nM.

With `N#Cc1nc2c(nc1C(N)=O)-c1ccccc1/C2=N\OCC(=O)O` [Example 38, (3-carbamoyl-2-cyano-indeno[1,2-b]pyrazin-9-ylideneaminooxy)-acetic acid], the IC50 on USP8 was 272 nM; at Caspase 3 it was 3940 nM. Besides, in experiment [1] (HCT-116, 72 h), the GI50 was > 10000 nM.

Take `CCOC(=O)CNC(=O)CO/N=C1\c2ccccc2-c2nc(C(N)=O)c(C#N)nc21` [Example 40, [2-(3-carbamoyl-2-cyano-indeno[1,2-b]pyrazin-9-ylideneaminooxy)-acetylamino]-acetic acid ethyl ester]: the IC50 was found to be 155 nM on USP8 and 857 nM at Caspase 3 (setting [3]). The GI50 in experiment [1] (setting [4]) amounted to 4600 nM.

`N#Cc1nc2c(nc1C(N)=O)-c1ccccc1/C2=N\OCC(=O)NCC(=O)O` [Example 41, [2-(3-carbamoyl-2-cyano-indeno[1,2-b]pyrazin-9-ylideneaminooxy)-acetylamino]-acetic acid]: the IC50 on USP8 stood at 118 nM; at Caspase 3 (setting [3]), 1980 nM. Besides, the GI50 in experiment [1] (HCT-116, 72 h) was > 10000 nM.
